Test system: red blood cells
Assay: Red blood cell haemolysis assay
Assay type: cell-based
From the text: In order to determine the relative toxicity or irritancy levels of various toothpastes and mouthwashes, a red blood cell heamolysis assay was employed to obtain information on the effects of these substances on cell membrane integrity. The Red Blood Cell assay provides a simple test system that uses easily obtainable cells and is characterized by defined and objective endpoints. […] Haemoglobin release is a useful endpoint of cell membrane integrity. It is therefore highly suitable as a screening assay in a first-order in vitro test battery for the assessment of potential toxicity to tissue, including tissues of the oral cavity.
To assess the membranolytic activity of test materials. The test materials are incubated with isolated red blood cells. The degree of damage to the red blood cell membrane is quantified by spectro-photometric measurement of released haemoglobin.
Red blood cells are isolated concentrations of the test materials defined from results of a range finding study; released is measured at 541 nm and the concentration resulting in 50% hemolysis (relative to a totally lysed sample) calculated. […]
(b) After the final centrifugation, the packed cell volume is diluted with phosphate buffered saline (PBS) to give an approximate 2% erythrocyte suspension. […] The exact volume of PBS required for a 2% suspension is calculated from the optical density and adjusted accordingly. […]

Row | SMILES | % Hemolysis (Individual Components) (0.05% CPC) | % Hemolysis (Individual Components) (0.10% DHA)
1 | CCCCCCCCCCCCCCCC[n+]1ccccc1 [CPC, Cetylpyridinium Chloride] | 92.36% | 
2 | CC(=O)C1C(=O)C=C(C)OC1=O (centres unmarked) [DHA, dehydroacetic acid] |  | 3.24%

Reference: patent US7128898B2, “Method of minimizing cell lysis and toothpaste and mouthwash with reduced irritancy” (priority 1999, dated 2006)
